Results on 34 molecules are retold here after ChEMBL document CHEMBL5131445, “Optimization of a novel piperazinone series as potent selective peripheral covalent BTK inhibitors” (Bioorg Med Chem Lett, 2022).

Each structure is given as a SMILES string.

The target of series [1] is T1, Tyrosine-protein kinase BTK (Homo sapiens, UniProt Q06187). Kind of series: Inhibition of BTK (unknown origin).
Series [2] can be described thus: Inhibition of CD69 expression on CD19 positive B cells in anti-IgD stimulated human whole blood. It counts as functional, tissue-based. Conditions: CD19 positive B cell.
The nature of series [3]: Metabolic stability in human liver microsomes assessed as intrinsic clearance. It is filed as ADME, Microsome. Conditions: read-out: CLH.
The nature of series [4]: Metabolic stability in rat liver microsomes assessed as intrinsic clearance. Conditions: read-out: CLH. It is filed as ADME, Microsome.
The nature of series [5]: Plasma protein binding in human assessed as unbound fraction by rapid equilibrium dialysis method. It counts as ADME, cell-free.
Series [6] addresses T1, Tyrosine-protein kinase BTK. Kind of series: Inhibition of pBTK in human whole blood. It counts as tissue-based.

T1 sequence (Q06187 whole entry): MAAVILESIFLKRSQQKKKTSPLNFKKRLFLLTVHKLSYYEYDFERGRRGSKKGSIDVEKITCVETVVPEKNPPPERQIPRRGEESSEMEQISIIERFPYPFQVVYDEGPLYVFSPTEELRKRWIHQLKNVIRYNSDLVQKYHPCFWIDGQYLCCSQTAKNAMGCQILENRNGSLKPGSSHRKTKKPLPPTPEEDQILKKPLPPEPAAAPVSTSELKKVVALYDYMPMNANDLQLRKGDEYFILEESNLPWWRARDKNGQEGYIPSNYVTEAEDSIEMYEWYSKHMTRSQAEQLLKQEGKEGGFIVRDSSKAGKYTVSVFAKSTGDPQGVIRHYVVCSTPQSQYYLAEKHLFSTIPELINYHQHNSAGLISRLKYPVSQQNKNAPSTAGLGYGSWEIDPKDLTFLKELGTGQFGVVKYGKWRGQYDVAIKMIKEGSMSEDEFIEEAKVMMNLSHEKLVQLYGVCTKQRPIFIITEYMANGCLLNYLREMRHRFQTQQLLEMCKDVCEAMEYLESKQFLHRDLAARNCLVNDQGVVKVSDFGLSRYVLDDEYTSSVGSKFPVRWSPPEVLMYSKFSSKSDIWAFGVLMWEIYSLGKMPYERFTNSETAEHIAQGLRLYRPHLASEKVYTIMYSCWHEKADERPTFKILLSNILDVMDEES

Take `C=CC(=O)N(C)CCOc1c(-c2ccc(CN3CCN(CC(C)C)CC3=O)c(C)c2)ccnc1N`: the values for the IC50 in series [1] and in series [2] were 0.69 nM and 360 nM, respectively. The CLint scaled in series [3] was found to be 334 mL/min/kg; in series [4], 793 mL/min/kg. Besides, in series [5], the fraction unbound (in general, free concentration divided by total concentration) was 0.29.

As to `C=CC(=O)N(C)CCOc1cncnc1-c1ccc(CN2CCN(CC3CCC3)CC2=O)c(C)c1`, the IC50 (in general, the concentration needed to halve the response being measured) came out at 1.6 nM in series [1] and 1080 nM in series [2]. The CLint scaled in series [3] is 384 mL/min/kg; in series [4], 1880 mL/min/kg.

For the molecule `C=CC(=O)N(C)CCOc1cnccc1-c1ccc(CN2CCN(CCC)CC2=O)c(C)c1`, the IC50 in series [1] was 4.8 nM; in series [2] it was 890 nM. For the same molecule, the CLint scaled in series [3] was determined as 286 mL/min/kg; in series [4], 1540 mL/min/kg.

The molecule `Cc1cc(-c2ccnc(Nc3cnn(C)c3)n2)ccc1CN1CCN(CC2CN(C)C2)CC1=O` returned an IC50 in series [1] of 7300 nM. This counts as single-digit micromolar.

As for `C=CC(=O)N(C)CCOc1cncnc1-c1ccc(CN2CCN(CC(C)(C)C)CC2=O)c(F)c1`, the results for the IC50 in series [1] and in series [2] were 0.44 nM and 300 nM, respectively. Moreover, the CLint scaled in series [3] came out at 809 mL/min/kg; in series [4], 3680 mL/min/kg.

For `Cc1cc(-c2ccnc(Nc3cnn(CCO)c3)n2)ccc1CN1CCN(CC(C)C)CC1=O`, the IC50 in series [1] was 3 nM; in series [6], 590 nM.

As for `Cc1cc(-c2ccnc(Nc3cnn(C)c3)n2)ccc1CN1CCN(CC2CN(O)C2)CC1=O`, the IC50 in series [1] is 80 nM. In other words, the double-digit nanomolar range.

In turn, `Cc1cc(-c2ccnc(Nc3cnn(C)c3)n2)ccc1CN1CCN(CC2(C)CC2)CC1=O` gave an IC50 in series [1] of 7 nM.

As for `C=CC(=O)N(C)CCOc1cncnc1-c1ccc(CN2CCN(CC(C)(C)C)CC2=O)cc1`, the half-maximal inhibitory concentration (IC50) was 17 nM in series [1] and 4700 nM in series [2]. The CLint scaled in series [3] came out at 270 mL/min/kg; in series [4], 930 mL/min/kg.

In the case of `Cc1cc(-c2ccnc(Nc3cnn(C)c3)n2)ccc1CN1CCN(CC2CCC2)CC1=O`, the IC50 turned out to be 3 nM in series [1] and 930 nM in series [6].

For `C=CC(=O)N(C)CCOc1cnccc1-c1ccc(CN2CCN(C(C)C)CC2=O)c(C)c1`, the IC50 was 2.9 nM in series [1] and 920 nM in series [2]. For the same molecule, the values for the CLint scaled in series [3] and in series [4] were 135 mL/min/kg and 1240 mL/min/kg, respectively.

With `Cc1cc(-c2ccnc(Nc3cnn(C)c3)n2)ccc1CN1CCN(CC(C)C)CC1=O`, the figures for the IC50 in series [1] and in series [6] were 3 nM and 310 nM, respectively.

As to `C=CC(=O)N(C)CCOc1cnccc1-c1ccc(CN2CCN(CC)CC2=O)c(C)c1`, the IC50 in series [1] was found to be 32 nM; in series [2], 4410 nM. For the same molecule, the values for the CLint scaled in series [3] and in series [4] were 113 mL/min/kg and 591 mL/min/kg, respectively.

Turning to `Cc1cc(-c2ccnc(Nc3cnn(C)c3)n2)ccc1CN1CCN(CC(F)(F)F)CC1=O`, the IC50 in series [1] turned out to be 160 nM. That is a sub-micromolar value.

`CC(=O)N(C)CCOc1cncnc1-c1ccc(CN2CCN(CC(C)(C)C)CC2=O)c(C)c1`: the results for the IC50 in series [1] and in series [2] were 1720 nM and more than 10000 nM, respectively. Besides, the CLint scaled is 530 mL/min/kg in series [3] and 1500 mL/min/kg in series [4]. For the same molecule, the fraction unbound in series [5] is 0.31.

`C=CC(=O)N(C)CCOc1cnccc1-c1ccc(CN2CCN(C)CC2=O)c(C)c1`: the results for the IC50 in series [1] and in series [2] were 315 nM and more than 10000 nM, respectively. Also, the CLint scaled in series [3] was 95 mL/min/kg; in series [4], 620 mL/min/kg.

In the case of `Cc1cc(-c2ccnc(Nc3cnn(C)c3)n2)ccc1CN1CCN(CC2CCOC2)CC1=O` (configuration not stated), in series [1], the IC50 was 180 nM.

For `CC(C)(C)CN1CCN(Cc2ccc(-c3ccnc(Nc4cnn(CCO)c4)n3)cc2C(F)(F)F)C(=O)C1`, the IC50 in series [1] is 0.4 nM; in series [6] it was 480 nM.

Turning to `C=CC(=O)N(C)CCOc1cncnc1-c1ccc(CN2CCN(C3CCOC3)CC2=O)c(F)c1` (configuration not stated), the figures for the IC50 in series [1] and in series [2] were 268 nM and more than 10000 nM, respectively. For the same molecule, the CLint scaled came to 81 mL/min/kg in series [3] and 308 mL/min/kg in series [4].

For `C=CC(=O)N(C)CCOc1cnccc1-c1ccc(CN2CCN(CC3CCC3)CC2=O)c(C)c1`, the figures for the IC50 in series [1] and in series [2] were 1.2 nM and 1080 nM, respectively. Besides, the CLint scaled stood at 686 mL/min/kg in series [3] and 2260 mL/min/kg in series [4].

For the molecule `CC(C)CN1CCN(Cc2ccc(-c3ccnc(Nc4cnn(CCO)c4)n3)cc2C(F)(F)F)C(=O)C1`, the IC50 is 1 nM in series [1] and 120 nM in series [6].

Take `Cc1cc(-c2ccnc(Nc3cnn(C)c3)n2)ccc1CN1CCN(CC(C)(C)C#N)CC1=O`: the IC50 in series [1] stood at 99 nM.

Take `CC(C)CN1CCN(Cc2ccc(-c3ccnc(Nc4cnn(CCO)c4)n3)cc2Cl)C(=O)C1`: the half-maximal inhibitory concentration (IC50) stood at 4 nM in series [1] and 990 nM in series [6].

For the molecule `Cc1cc(-c2ccnc(Nc3cnn(C4CN(C)C4)c3)n2)ccc1CN1CCN(CC(C)(C)C)CC1=O`, the results for the IC50 in series [1] and in series [6] were 7 nM and 2650 nM, respectively.

For the molecule `C=CC(=O)N(C)CCOc1cncnc1-c1ccc(CN2CCN(CC3(C)CC3)CC2=O)c(C)c1`, the IC50 in series [1] is 0.98 nM; in series [2] it was 130 nM. Besides, the CLint scaled in series [3] turned out to be 559 mL/min/kg; in series [4], 2680 mL/min/kg.

Regarding `Cc1cc(-c2ccnc(Nc3cnn(CCO)c3)n2)ccc1CN1CCN(CC(C)(C)C)CC1=O`, the IC50 in series [1] was found to be 1 nM; in series [6], 810 nM.

In series [1], `Cc1cc(-c2ccnc(Nc3cnn(C)c3)n2)ccc1CN1CCN(CC2CC(F)(F)C2)CC1=O` came in with an IC50 of 28 nM.

Regarding `Cc1cc(-c2ccnc(Nc3cnn(C)c3)n2)ccc1CN1CCN(CC2CNC2)CC1=O`, the IC50 in series [1] stood at 4200 nM.

As to `Cc1cc(-c2ccnc(Nc3cnn(C4CN(C)C4)c3)n2)ccc1CN1CCN(CC(C)C)CC1=O`, the IC50 stood at 7 nM in series [1] and 350 nM in series [6].

In the case of `Cc1cc(-c2ccnc(Nc3cnn(C)c3)n2)ccc1CN1CCN(C2CCC2)CC1=O`, the IC50 in series [1] came out at 11 nM. In other words, the double-digit nanomolar range.

In series [1], `CCN1CCN(Cc2ccc(-c3ccnc(Nc4cnn(C)c4)n3)cc2C)C(=O)C1` displayed an IC50 of 520 nM.

For the molecule `C=CC(=O)N(C)CCOc1cncnc1-c1ccc(CN2CCN(CC(F)(F)F)CC2=O)c(C)c1`, the IC50 in series [1] came to 12 nM; in series [2], 1990 nM. Further, the CLint scaled was 316 mL/min/kg in series [3] and 1110 mL/min/kg in series [4].

For the molecule `C=CC(=O)N(C)CCOc1cnccc1-c1ccc(CN2CCN(CC(C)C)CC2=O)c(C)c1`, the IC50 in series [1] is 0.65 nM; in series [2], 160 nM. The values for the CLint scaled in series [3] and in series [4] were 633 mL/min/kg and 2340 mL/min/kg, respectively.

As for `Cc1cc(-c2ccnc(Nc3cnn(C)c3)n2)ccc1CN1CCN(C(C)(C)C)CC1=O`, half-maximal inhibition in series [1] (IC50) was put at 43 nM.
